From ChEMBL document CHEMBL3832034
Values joined by “and” are separate entries in the source; they are usually repeats but may differ in a detail not shown here. Equal entries are not always repeated.

Assays:
Format in all cases: ADME, organism-based
Homo sapiens = test: (§1) Pharmacokinetic parameters for Lidocaine, and Prilocaine after topical administration of EMLA cream intact skin on the lateral thighs, vaginal fornices and penile skin of subjects; design: dose 1.5 g, route topical; details: in vivo, topical_or_ocular; for C / Tmax: route topical
[1] = Evaluation of pharmacokinetic parameters for Lidocaine, and Prilocaine following intravenous (IV) administration of Lidocaine or application of a cream.; details: human, dosed compound id 50, dosed compound name PRILOCAINE, tissue Plasma
[2] = as §1; design: dose 1.5 g, route topical; details: human, in vivo, topical or ocular, 1.5 g; dosed compound id 50, dosed compound name PRILOCAINE, regimen Single dose, study dosing duration 3 hours, tissue Plasma
[3] = dose 0.5 to 3.3 g, dosed compound id 50, dosed compound name PRILOCAINE, gender female, regimen Single dose, study dosing duration 10 to 60 minutes, tissue Plasma

Row | SMILES | Cmax (Homo sapiens) | clearance ([1]; in vivo, route iv) [mL/min/kg] | half-life ([1]; in vivo, route iv) [h] | Vd ([1]; in vivo, route iv, read-out: Vss) [L/kg] | fraction unbound ([1]; topical or ocular, route topical, read-out: Protein binding (converted)) | Cmax [2] [ng/mL] | C (Homo sapiens; [3]) [ng/mL] | Tmax (Homo sapiens; [3]) [h] | C (Homo sapiens; dose 0.5 to 3.3 g, dosed compound id 50, dosed compound name PRILOCAINE, gender male, regimen Single dose, study dosing duration 15 minutes, tissue Plasma) [ng/mL] | Tmax (Homo sapiens; dose 1.5 g, dosed compound id 50, dosed compound name PRILOCAINE, regimen Single dose, study dosing duration 3 hours, tissue Plasma) [h] | Tmax (Homo sapiens; dose 1.5 g, dosed compound id 50, dosed compound name PRILOCAINE, regimen Single dose, study dosing duration 24 hours, tissue Plasma) [h] | Cmax (Homo sapiens; dosed compound id 50, dosed compound name PRILOCAINE, regimen Single dose, study dosing duration 24 hours, tissue Plasma) [ng/mL]
1 | CCN(CC)CC(=O)Nc1c(C)cccc1C [LIDOCAINE] | 120 ng/mL and 280 ng/mL | – | – | – | – | – | – | – | – | – | – | –
2 | CCCNC(C)C(=O)Nc1ccccc1C (configuration not stated) [PRILOCAINE] | – | 38 | 1.17 | 2.6 | 0.45 | 70 | 40 to 346 | 0.35 to 1.58 | 2.5 to 7 | 4 | 10 | 140
